From patent publication US7446091B2, “Methods and preparations for curing clinically ill patients” (Novo Nordisk A/S, priority 2000, dated 2008)

Tested on: mechanically ventilated, adult patients admitted to the intensive care unit (ICU)
Experiment: Example 2: prospective, randomized, controlled study, morbidity analysis
Format: in vivo, human
Conditions: for Patients with critical illness polyneuropathy - total no.: EMG-screened patients; for Number of transfusions per patient (median): admission day not taken into account
Text: All mechanically ventilated, adult patients admitted to the intensive care unit (ICU) were eligible for inclusion.
At baseline, demographic, diagnostic and therapeutic information as well as information necessary to determine severity of illness and utilization of ICU resources were obtained from each patient (Table 1). These included APACHE-II (Acute Physiology and Chronic Health Evaluation) score with higher values indicating more severe illness (see Knaus) and simplified Therapeutic Intervention Scoring System (TISS-28) with higher values indicating a higher number of therapeutic interventions (see Reis Miranda & Keene). APACHE II and TISS scores were calculated daily from ICU admission to discharge or death.
A blood sample was taken upon ICU admission and daily at 06:00 h until discharge from ICU or death. On-admission and daily morning, whole blood glucose level as well as daily maximal and minimal glycemia were analysed. Analyses on the 06:00 h sample also included clinical chemistry, hematology and markers of inflammation.
Blood cultures were taken whenever continously monitored central body temperature acutely rose above 38.5° C. Results from all blood cultures were interpreted by the same blinded investigator. An episode of bacteremia, fungemia or mycobacteremia was defined by the first positive blood culture in a series. To identify a blood stream infection with coagulase-negative staphylocci, identical strains (compared by antibiogram) of microorganisms in two or more positive blood cultures were required (see Weinstein 1997 and Weinstein 1998).
In patients treated in ICU for more than one week, a weekly electromyography (EMG) was performed to screen for Critical Illness Polyneuropathy. EMGs were interpreted by the same electrophysiologist who was blinded for randomization. In case of ICU death, a post-mortem examination was performed to confirm the presumed cause of death.
The primary outcome measure was death from all causes during intensive care. Secondary outcome measures were in-hospital mortality, incidence of prolonged intensive care dependency and need for ICU re-admission, need for vital organ system support comprising mechanical ventilatory support, renal replacement therapy (continuous or intermittent hemofiltration or dialysis), inotropic or vasopressor support, incidence of critical illness polyneuropathy, the degree of inflammation, incidence of blood stream infections and use of antibiotics, transfusion requirements and incidence of hyperbilirubinemia. Furthermore, use of intensive care resources was analysed by cumulative TISS scores. In order to accurately and objectively assess duration of ICU stay, which is often influenced by non-patient related factors such as bed availability on regular wards, patients were defined ‘dischargable from ICU’ when they were no longer in need of vital organ system support and received at least ⅔rd of the caloric need through the normal enteral route or earlier when actually sent to a ward.
Baseline and outcome variables were compared using Student's t-test, Chi-square test and Mann-Whitney-U test, as appropriate. Death odds ratios were calculated using multivariate logistic regression analysis. The effect on time of in-hospital death was assessed by Kaplan-Meier analysis and logrank (Mantel-Cox) significance testing. Patients discharged from the hospital were considered as survivors. Data are presented as percentages, means ±SD or medians (25th-75th percentile) unless indicated otherwise.

[1] = IIS, ICU stay >5 days (N = 451)
[2] = IIS, ICU stay ≤5 days (N = 1097)
[3] = RIS, ICU stay >5 days (N = 451)
[4] = RIS, ICU stay ≤5 days (N = 1097)

insulin
Patients with hyperbilirubinemia, NNT (IIS vs RIS): 20 | Patients with hyperbilirubinemia, RRR (%) (IIS vs RIS): 19% | Peak plasma creatinine >2.5 mg/dL, NNT (IIS vs RIS): 31 | Peak plasma creatinine >2.5 mg/dL, RRR (%) (IIS vs RIS): 26% | Peak plasma urea concentration >150 mg/dL, NNT (IIS vs RIS): 29 | Peak plasma urea concentration >150 mg/dL, RRR (%) (IIS vs RIS): 31% | Repetitive (>2) positive EMGs, NNT (IIS vs RIS): 8 | Repetitive (>2) positive EMGs, RRR (%) (IIS vs RIS): 63% | Patients with critical illness polyneuropathy, NNT (IIS vs RIS, among screened patients): 4 | Reduction in median cumulative TISS score (IIS vs RIS, long-stay patients): 20% | Patients with critical illness polyneuropathy - total no. (IIS): 47 | Cumulative TISS (median) [1]: 431 | Days on ICU (median) [1]: 12 days | Days on mechanical ventilatory support (median) [1]: 10 days | Cumulative TISS (median) [2]: 85 | Days on ICU (median) [2]: 2 days | Days on mechanical ventilatory support (median) [2]: 1 days | Number of transfusions per patient (median) (IIS): 1 | >3 days C-reactive protein level above 150 mg/L (%) (RIS): (21%) | >3 days C-reactive protein level above 150 mg/L - total no. (RIS): 162 | >3 days central body temperature ≤36° C. or […]38° C. (%) (RIS): (26%) | >3 days central body temperature ≤36° C. or […]38° C. - total no. (RIS): 206 | >3 days white blood cell count ≤4000/μL or […]12000/μL (%) (RIS): (21%) | >3 days white blood cell count ≤4000/μL or […]12000/μL - total no. (RIS): 166 | Lowest level of hemoglobin (g/dL) when transfused (median) (RIS): 8.1 g/dL | Number of patients requiring red cell transfusion (%) (RIS): (31%) | Number of patients requiring red cell transfusion - total no (RIS): 243 | Patients needing dialysis or CVVH (%) (RIS): (8.2%) | Patients needing dialysis or CVVH - total no (RIS): 64 | Patients on inotropic/vasopressor treatment (%) (RIS): (75%) | Patients on inotropic/vasopressor treatment - total no. (RIS): 586 | Patients requiring >7 days intensive care (%) (RIS): (26.3%) | Patients requiring >7 days intensive care - total no (RIS): 206 | Patients requiring >7 days ventilatory support (%) (RIS): (23.2%) | Patients requiring >7 days ventilatory support - total no. (RIS): 175 | Patients requiring >14 days intensive care (%) (RIS): (15.7%) | Patients requiring >14 days intensive care - total no (RIS): 123 | Patients requiring >14 days ventilatory support (%) (RIS): (12.3%) | Patients requiring >14 days ventilatory support - total no. (RIS): 93 | Patients requiring >21 days intensive care (%) (RIS): (9.5%) | Patients requiring >21 days intensive care - total no (RIS): 74 | Patients requiring >21 days ventilatory support (%) (RIS): (8.2%) | Patients requiring >21 days ventilatory support - total no. (RIS): 62 | Patients treated with antibiotics for >10 days (%) (RIS): (17.1%) | Patients treated with antibiotics for >10 days - total no. (RIS): 134 | Patients with an ICU stay of >5 days (RIS): 31% | Patients with blood stream infections during intensive care - total no (RIS): 61 | Patients with critical illness polyneuropathy (% of EMG-screened) (RIS): (52%) | Patients with hyperbilirubinemia (peak bilirubin >2 mg/dL) (%) (RIS): (27%) | Patients with hyperbilirubinemia (peak bilirubin >2 mg/dL) - total no. (RIS): 209 | Peak plasma creatinine >2.5 mg/dL (%) (RIS): (12.2%) | Peak plasma creatinine >2.5 mg/dL - total no. (RIS): 96 | Peak plasma urea concentration >150 mg/dL (%) (RIS): (11.2%) | Peak plasma urea concentration >150 mg/dL - total no. (RIS): 88 | Repetitive (>2) positive EMGs (% of EMG screened) (RIS): (19%) | Repetitive (>2) positive EMGs - total no (RIS): 39 | Patients with critical illness polyneuropathy - total no. (RIS): 110 | Cumulative TISS (median) [3]: 536 | Days on ICU (median) [3]: 15 days | Days on mechanical ventilatory support (median) [3]: 12 days | Cumulative TISS (median) [4]: 84 | Days on ICU (median) [4]: 2 days | Days on mechanical ventilatory support (median) [4]: 1 days | Number of transfusions per patient (median) (RIS): 2 | TISS score on the last day of study (median, IQR) (both study groups (IIS and RIS)): 30 (26-38) | ICU re-admission rate (similar in both groups (IIS and RIS)): 2.1%
